Converted amounts (≈) assume the structure as drawn. Where two headings read alike, the source gives them in different places. Non-standard residues stand in square brackets, D forms with d. Residues, ends and D or L forms follow the SMILES beside them.
Columns and labels:
[1] = system: Xanthomonas campestris pv. campestris strain Xcc17; assay: IC50 of bacterial growth (OD600) in rich liquid medium; assay type: cell-based; conditions: Xcc Xcc17, 24 h, purified peptides
Description: (§1) To measure the antimicrobial activity, single colony grown on an optimal rich agar medium for each bacterium was picked and grew in 3 mL of the same rich liquid medium for 4 to 6 h. The bacterial culture was then diluted in the same medium to give a final concentration of OD600=0.08 and then further diluted […] in the same medium. In each well of a 96-well polystyrene plate, 90 μL of the diluted culture was mixed with 10 μL of the peptide to give a peptide concentration of 0, 2, 10, and 20 μg/mL (final cell concentration is 5×10^5 CFU/mL). OD600 was measured after incubation at an optimal temperature for 24 h. IC50 was determined as the lowest peptide concentration inhibiting 50% of bacterial growth.

[2] = system: Xanthomonas euvesicatoria strain Xvt28; assay: as above; assay type: cell-based; conditions: Xev Xvt28, 24 h, purified peptides
Description: as §1

Eco DH5α = assay: MIC and MBC by serial dilution in 96-well plate; assay type: cell-based, Escherichia coli; conditions: Table 7
Description: (§2) The effect of peptide length on the antimicrobial activity was investigated by deciding the minimal inhibitory concentration (MIC) and minimal bactericidal concentration (MBC) for each peptide against the pathogen with the media and growth conditions of phytopathogenic bacteria and E. coli as described in Table 1. Single bacterial colony grown on an optimal rich agar medium was picked, and each grew in 3 mL of the same rich liquid medium for 4 to 6 h.
(§3) For experiments carried out in the rich medium, the bacterial broth culture was then diluted in the same medium to give a final concentration of OD600=0.08, and then further diluted 100 folds in the same medium.
(§4) For experiments carried out in the minimal medium, the bacterial cells were collected from the bacterial liquid culture by centrifugation, re-suspended in an optimal minimal medium to give a final concentration of OD600=0.08, and then further diluted 100 folds in the same minimal medium.
(§5) Fifty microliters of serially diluted peptides (2-fold the final concentration) were added in a 96-well polystyrene plate with 50 μL of the bacterial culture. The final concentrations of peptides were 0, 2, 4, 8, 16 and 32 μg/mL. The plates were incubated at an optimal temperature without shaking.
(§6) MBC was determined as the lowest peptide concentration at which no colonies formed.

[3] = system: Xanthomonas campestris pv. campestris strain Xcc17; assay: MIC and MBC by serial dilution in 96-well plate; assay type: cell-based; conditions: Xcc Xcc17; Table 7
Description: as §2, §3, §4, §5, §6

[4] = system: Xanthomonas euvesicatoria strain Xvt28; assay: MIC and MBC by serial dilution in 96-well plate; assay type: cell-based; conditions: Xev Xvt28; Table 7
Description: as §2, §3, §4, §5, §6

[5] = system: Pectobacterium carotovorum subsp. carotovorum; assay type: cell-based
Procedure, shortened: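 Bacteria were grown 4–6 h, set to OD600=0.08 in rich or minimal medium, then diluted 100-fold. This inoculum was mixed 1:1 with 2-fold serial peptide dilutions and incubated static at optimal temperature. MIC was read from growth and MBC taken as the lowest concentration giving no colonies.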

[6] = CD spectra of pepD in liposomes; assay type: physicochemical; conditions: CD in water, DOPC, POPE/POPG (1:1, w/w) liposomes
Description: 1,2-dioleoyl-sn-glycero-3-phosphocholine (DOPC) is commonly used to mimic mammalian cell membrane. 1-Palmitoyl-2-oleoyl-sn-glycero-3-phosphoglycerol (POPG) has a negatively charged head group. The mixture of 1-palmitoyl-2-oleoyl-sn-glycero-3-phosphoethanolamine (POPE) and POPG is commonly used to mimic the negatively charged membrane surface of bacteria.
For the CD spectra of pepD in lipids, two kinds of liposomes DOPC and POPE/POPG (1:1, w/w) were prepared. DOPC (10 mg/mL) and POPE/POPG (14 mg/mL) were dissolved in chloroform/methanol (9/1, v/v) in a glass tube individually. The solvents were evaporated under the purge of nitrogen gas to form a thin lipid film on the tube surface. The tube was placed in vacuo overnight to completely remove the organic solvent. To rehydrate the lipid film, 400 μL deionized water was added and mixed in an Intelli-Mixer (rocker mode, 60 rpm) for one hour. Then, the water/lipid mixture was frozen in liquid nitrogen and thawed at 45° C. for 5 min. After five freeze-thaw cycles, liposomes were prepared by extruding the mixture through a polycarbonate filter (with 200-nm pore size) using an Avanti Mini-Extruder (Avanti Polar Lipids, USA). Purified pepD was dissolved in water (64 μg/mL) and mixed with an equal volume of the liposome suspension for CD measurement.

[7] = system: Escherichia coli strain DH5a; conditions: DH5a, 24 h
[8] = system: Xanthomonas oryzae pv. oryzae strain Xoo28; conditions: Xoo Xoo28; rich medium, 24 h, purified peptides
[9] = system: Xanthomonas oryzae pv. oryzae strain Xoo28; conditions: Xoo Xoo28; Table 7
[10] = system: Agrobacterium tumefaciens strain Atu C58C1; conditions: Atu C58C1; Table 7
[11] = system: Pseudomonas syringae pv. tomato strain DC3000
[12] = system: Pseudomonas syringae pv. syringae strain B728a; conditions: Pss B728a; Table 7
red blood cells = assay type: cell-based, rat
Description: Further, the hemolytic activity of the antimicrobial peptides was tested. EDTA-treated rat whole blood was centrifuged at 840×g for 3 minutes at 4° C. to separate blood cells and plasma. The plasma was removed, and the blood cells were washed three times with PBS having the same volume as the original blood volume by gently turning the centrifuge tube upside down. After washing, ten microliters of blood cells were diluted in PBS 2000 times to count the cells. Finally, red blood cells were diluted to 5×10^8 cells/mL in PBS. Peptides were dissolved in water and filtered through a 0.2-μm filter to make a stock solution. The peptide concentration was quantitated by UV280. The peptide solution was diluted in PBS to different concentrations (5 times of tested concentration). Twenty microliters of peptide in PBS were mixed with 80 μL of red blood cell solution in a 96-well plate (V-bottom). […] The concentration of heme contained in each well was measured by UV405 using Infinite M1000 pro (Tecan). The hemolytic activity was calculated using the following formula: Hemolytic activity=[(F−F0)/(Ft−F0)]×100% • F is UV405 of the peptide-treated sample; • F0 is UV405 of sample without peptide (negative control); • Ft is UV405 of the Triton-treated sample (positive control).

[13] = system: Candida albicans 12-99 (fluconazole-resistant)
[14] = system: Candida albicans 89 (echinocandin-resistant)
[15] = system: Cryptococcus neoformans H99
[16] = system: Cryptococcus neoformans T1 (fluconazole-resistant)
[17] = system: Cryptococcus neoformans 89-610 (fluconazole-resistant)
[18] = system: Cryptococcus deuterogattii R265
[19] = system: Cryptococcus gattii WM276
[20] = system: Acinetobacter baumannii ATCC 17978
[21] = system: Klebsiella pneumonia NTUH-K2044
[22] = system: Staphylococcus aureus BCRC 10777
[23] = system: Staphylococcus epidermidis ATCC 14990
[24] = system: Pseudomonas aeruginosa ATCC 9027; conditions: ATCC 9027
[25] = system: Salmonella typhimurium NCHU 15721; conditions: murium NCHU 15721

Ac-WKKLKKLLKKLKKLLKKL-NH2 [pepD]
IC50 [1]: 4.0 µg/mL
IC50 [2]: 4.0 µg/mL
MBC (Eco DH5α): 10.0 µg/mL
MIC (Eco DH5α): 10.0 µg/mL
MBC [3]: 6.7 µg/mL
MIC [3]: 2.7 µg/mL
MBC [4]: 18.7 µg/mL
MIC [4]: 5.3 µg/mL
MIC [5]: 32.0 µg/mL
MBC ([5]; Pcc, Table 7): — (“—” indicates no antimicrobial activity being detected at the highest peptide concentration (32 μg/mL) tested in this study.)
lipid selectivity [6]: only interacts with negatively charged lipid
IC50 [7]: 10.0 µg/mL
IC50 [8]: 8.0 µg/mL
MIC (Candida albicans SC5314; SC5314, 48 h): 16.0 µg/mL
MBC [9]: 4.0 µg/mL
MIC [9]: 4.0 µg/mL
MBC [10]: — (“—” indicates no antimicrobial activity being detected at the highest peptide concentration (32 μg/mL) tested in this study.)
MBC [11]: 24.0 µg/mL
MIC [11]: 16.0 µg/mL
MBC [12]: — (“—” indicates no antimicrobial activity being detected at the highest peptide concentration (32 μg/mL) tested in this study.)
MIC [12]: 32.0 µg/mL

CC(=O)N[C@@H](Cc1c[nH]c2ccccc12)C(=O)N[C@H](CCCCN)C(=O)N[C@H](CCCCN)C(=O)N[C@H](CC(C)C)C(=O)N[C@H](CCCCN)C(=O)N[C@H](CCCCN)C(=O)N[C@H](CC(C)C)C(=O)N[C@H](CC(C)C)C(=O)N[C@H](CCCCN)C(=O)N[C@H](CCCCN)C(=O)N[C@H](CC(C)C)C(=O)N[C@H](CCCCN)C(=O)N[C@H](CCCCN)C(=O)N[C@H](CC(C)C)C(N)=O [pepdD2, Ac-Wkklkkllkklkkl-NH2] (Ac-W[dK][dK][dL][dK][dK][dL][dL][dK][dK][dL][dK][dK][dL]-NH2)
hemolytic activity (red blood cells): very little or non-hemolytic activity
MFC (Candida albicans SC5314; SC5314): 32 µg/mL (≈ 17.4 µM)
MIC (Candida albicans SC5314; SC5314): 32 µg/mL (≈ 17.4 µM)
MFC [13]: 32 µg/mL (≈ 17.4 µM)
MIC [13]: 16 µg/mL (≈ 8.71 µM)
MFC [14]: 32 µg/mL (≈ 17.4 µM)
MIC [14]: 32 µg/mL (≈ 17.4 µM)
MIC ([15]; Cryptococcus neoformans H99): 4 µg/mL (≈ 2.18 µM)
MFC ([15]; H99): 4 µg/mL (≈ 2.18 µM)
MIC ([16]; Cryptococcus neoformans T1 (fluconazole-resistant)): 2 µg/mL (≈ 1.09 µM)
MFC ([16]; T1 (fluconazole-resistant)): 2 µg/mL (≈ 1.09 µM)
MFC ([17]; 89-610 (fluconazole-resistant)): 2 µg/mL (≈ 1.09 µM)
MIC ([17]; Cryptococcus neoformans 89-610 (fluconazole-resistant)): 2 µg/mL (≈ 1.09 µM)
MFC [18]: 2 µg/mL (≈ 1.09 µM)
MIC ([18]; Cryptococcus deuterogattii R265): 2 µg/mL (≈ 1.09 µM)
MFC [19]: 2 µg/mL (≈ 1.09 µM)
MIC [19]: 2 µg/mL (≈ 1.09 µM)
MBC [20]: 8 µg/mL (≈ 4.36 µM)
MBC [21]: 32 µg/mL (≈ 17.4 µM)
MIC [21]: 32 µg/mL (≈ 17.4 µM)
MBC [22]: 32 µg/mL (≈ 17.4 µM)
MIC [22]: 32 µg/mL (≈ 17.4 µM)
MBC [23]: 32 µg/mL (≈ 17.4 µM)
MIC [23]: 16 µg/mL (≈ 8.71 µM)
MBC [24]: 4 µg/mL (≈ 2.18 µM)
MIC [24]: 4 µg/mL (≈ 2.18 µM)
MBC [25]: 16 µg/mL (≈ 8.71 µM)
MIC [25]: 16 µg/mL (≈ 8.71 µM)

From US20240101602A1, “ANTIMICROBIAL PEPTIDES AND METHOD OF PREVENTING OR TREATING INFECTION BY USING THE SAME” (priority 2020, published 2024)
